Data taken from patent US11820762B2, “Compounds as potential therapeutic agents targeting various neurodegenerative diseases” (The Hong Kong University of Science and Technology, priority 2020, dated 2023).

Key:
[1] = system: RNA (G4C2)2 (SEQ ID NO: 8) G4; assay: 1D 1H-NMR titration of RNA (G4C2)2 G4; format: binding; conditions: ratios 1:3, 1:5, 1:10
Description: (§1) Single […] were purchased from Integrated DNA Technologies (IDT) and Takara. Single-strand DNA/RNA sample at 100 μM was then annealed by heating up to 95° C. for 15 mins, and slowly cooled to room temperature in the annealing buffer (70 mM KCl, 20 mM potassium phosphate (pH 7.0)) for overnight. The final NMR samples contained 0.1 mM DNA or RNA in 70 mM KCl and 20 mM potassium phosphate buffer (pH 7.0).
The 1D ^1H-NMR spectra were performed at 25° C. All compounds were dissolved in isotope-labeled d6-DMSO (Sigma-Aldrich) at about 50 mM concentration, working as stock solutions. To avoid chemical shift changes of DNA/RNA G4 resulted from d6-DMSO addition, […] d6-DMSO was added into 500 μL of 0.1 mM DNA/RNA G4 solution in the NMR buffer (20 mM potassium phosphate buffer and 70 mM KCl, pH 7.0, 10% D2O) and then 1D ^1H-NMR spectrum was recorded as a reference. During NMR titration experiments of adding each compound into the DNA/RNA G4 solution, the maximal volume of 10 μL of each compound in d6-DMSO solution was regarded as a final data point. […]

[2] = Parallel artificial membrane permeability assay (PAMPA); format: in vitro ADME; conditions: 500 μM; 37° C., 18 hours
Description: 500 μL of 500 μM test compound and 200 μM Equilibrium Standards for each test compound were prepared. 5 μL DMSO plus 245 μL PBS served as blank control. Firstly, 300 μL PBS was added to each well in the acceptor plate. With the donor plate in its tray, 5 μL 4% Lecithin in Dodecane was added directly to the well membranes of the donor plate. 200 μL of each 500 μM test compound was added to duplicate wells of the donor plate. The donor plate was carefully placed into the acceptor plate wells and incubated at 37° C. for 18 hours. Then the liquid in acceptor plate wells was collected as Acceptor Solution for analysis. Absorbance spectrum from 200 nm to 500 nm in 10 nm intervals was read to determine the peak absorbance of test compounds and blank control.
In addition, we also tested the permeability on live cells. Neuro2a cells treated with cA at different concentrations (10 μg/ml, 20 μg/ml) for different incubation time (24 h, 48 h) were lysed. Supernatants of cell lysates were collected and analyzed by UPLC-MS. Meanwhile, cell media from different treatment groups were used as control. […] In contrast, the intensity of cA signal was the same in the three corresponding cell media groups (FIG. 25, 4-6).

[3] = system: DNA (G4C2)2 (SEQ ID NO: 4) G4; assay: 1D 1H-NMR titration of DNA (G4C2)2 G4; format: binding; conditions: cA at 1:1, 1:5, 1:10
Description: as §1
(§2) The 1D ^1H-NMR spectra were performed at 25° C. All compounds were dissolved in isotope-labeled d6-DMSO (Sigma-Aldrich) at about 50 mM concentration, working as stock solutions. To avoid chemical shift changes of DNA/RNA G4 resulted from d6-DMSO addition, […] d6-DMSO was added into 500 μL of 0.1 mM DNA/RNA G4 solution in the NMR buffer (20 mM potassium phosphate buffer and 70 mM KCl, pH 7.0, 10% D2O) and then 1D ^1H-NMR spectrum was recorded as a reference. During NMR titration experiments of adding each compound into the DNA/RNA G4 solution, the maximal volume of 10 μL of each compound in d6-DMSO solution was regarded as a final data point.
(§3) In addition to the four-repeat G4C2 DNA G4, there are parallel and hybrid G4 conformations formed simultaneously by the two-repeat G4C2 DNA^38,39. […]

[4] = system: DNA (G4C2)4 (SEQ ID NO: 5) G4; assay: 1D 1H-NMR titration of DNA (G4C2)4 G4; format: binding; conditions: for binding to DNA (G4C2)4 G4 by NMR titration: G4:compound ratio 1:1 to 1:10
Description: as §1, §2
We next confirmed the binding of cA and DNA (G4C2)4 (SEQ ID NO: 5) G4 by NMR titration experiments.

[5] = system: human telomeric variant htel21_T18 G4; assay: 1D 1H-NMR titration of human telomeric variant htel21_T18 G4; format: binding; conditions: cA at 1:10
Description: as §1, §2, §3

[6] = system: differentiated HT22 cells; assay: cells; format: cell-based; conditions: for EC50: Mus musculus, HT-22, differentiated HT22 cells pre-treated with 5 mM L-glutamate, cell viability; for neuroprotective activity compared with cA: comparison of analogs
Description: Cytotoxicity of compounds was tested by MTT assay. Cells were grown in DMEM (Gibco) with 10% FBS and 1% penicillin-streptomycin at 37° C. with 5% CO2. In total, 5×10^3 cells were seeded in each well of 96-well plates and cultured for 24 hours. Then cells were treated with different concentrations of compounds dissolved in DMSO for another 24 hours. After incubating with 20 μl of MTT (5 mg/mL) for each well at 37° C. for another four hours, 100 μl of DMSO was added to dissolve formazan. Absorbance was measured using a Multiskan™ FC microplate photometer at 570 nm. IC50 data were analyzed with GraphPad Prism software.
Cultured HT22 cells were differentiated by applying 10 μM retinoic acid (Sigma-Aldrich, R2625-50MG) and 500 μM cAMP (Sigma-Aldrich, A6885) in DEME medium supplied with 0.5% FBS (differentiation medium) and incubated 48 hours before adding other treatments. 5 mM L-glutamate acid was applied to the original differentiation medium for further 24-hours incubation. Cell viability was measured by MTT assay described above.
In the C9orf72 associated ALS/FTD, the G4C2 HRE make motor neurons more vulnerable to aberrant neuron excitation^43. Meanwhile, the hyperactivation of glutamate receptors drives a toxic level of neuronal activity, promoting the non-ATG (RAN) translation of G4C2 repeat-associated DPR proteins^44, leading to further toxicity of motor neurons. Thus, we would like to test our compounds in a glutamate (E)-induced excitotoxicity cell model.

Tau-R3 = biological target: T1, Tau-R3 (Homo sapiens, UniProt P10636); assay: Thioflavin T (ThT) fluorescent tau-R3 aggregation assay; format: biochemical; conditions: 20 μM Tau-R3, 10 μM heparin, read-out: IC50 of Tau-R3 aggregation inhibition (converted)
T1 construct: Tau-R3 protein was synthesized and purchased from ChinaPeptides Co., Ltd; purchased ChinaPeptides Co., Ltd; host or cells: chemical synthesis
Description: Tau-R3 protein was synthesized and purchased from ChinaPeptides Co., Ltd. ThT (ab120751, 1 mM) solution was freshly prepared in 50 mM Tris-HCl buffer (pH 7.4) and passed through a 0.45 μm pore size filter to remove insoluble particles before use. Tau-R3 (20 μM) was incubated with 20 μM ThT and 10 μM heparin in the presence or absence of cA, cB and cC. Samples in 200 μL were added to 96-well plates and incubated at 37° C. for 24-48 hours. ThT fluorescence intensity was recorded using a microplate reader with 440/480 nm excitation/emission filters at different time points. Non-linear regression analysis was performed to fit the boltzmann sigmoidal.
In the C9orf72 ALS/FTD, there is a strong genetic association between the microtubule-binding protein, tau and the G4C2 HRE. […] The co-expression of Tau and G4C2 repeats produces a synergistic deterioration of the neurodegeneration phenotype of ALS/FTD^46. Considering the tight correlation of Tau aggregation with the ALS/FTD pathogenesis, we tested our compounds in a non-cell-based Tau-R3 aggregation inhibition assay. […] Moreover, we conducted high magnification TEM imaging to characterize the morphological changes of Tau-R3 fibrils with cA, cB and cC treatments. […] Furthermore, the misfolding of tau protein into filaments in neurons of the central nervous system can be found in various neurodegenerative diseases, such as Alzheimer's disease et al. Therefore, the inhibition on tau aggregation represented a potential of cA and its derivatives in targeting multiple other neurodegenerative diseases more than ALS.

RRM domain of hnRNP H = biological target: T2, RRM domain of hnRNP H (Homo sapiens, UniProt P31943); assay: 1H-15N HSQC NMR titration of hnRNP H RRM domain; format: binding; conditions: ratios 1:5 and 1:10
T2 construct: HSQC spectra of RRM1/2 of hnRNP H; hexahistidine (cleaved yes); made in house; host or cells: Escherichia coli BL21(DE3), pET-28a(+)
T2 sequence (P31943 1-194 limits assumed): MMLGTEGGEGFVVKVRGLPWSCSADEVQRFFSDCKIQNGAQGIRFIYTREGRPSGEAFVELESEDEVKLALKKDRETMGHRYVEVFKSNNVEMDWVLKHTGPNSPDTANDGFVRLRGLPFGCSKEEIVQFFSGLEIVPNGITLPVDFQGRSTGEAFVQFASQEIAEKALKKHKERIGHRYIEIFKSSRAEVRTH
Description: The coding sequence of the RRM domain of hnRNP H/F, or human Orc6 was inserted into the expression vector pET-28a(+) (Novagen). Protein was expressed in Escherichia coli BL21(DE3) at 37° C. for 5 hours. Cell lysates were subject to affinity purification with nickel-nitrilotriacetic acid resin (Qiagen) followed by cleavage of hexahistidine tag with Protease 3C enzyme. Products were further purified on a Superdex 75 column (GE Healthcare). For NMR studies, uniformly ^15N labeled protein was expressed and purified as described above, except for cells grown in M9 medium containing 100% ^15N enriched ammonium chloride (Cambridge Isotopes) and d-glucose.
Titration experiments were performed by recording a series of 2D ^15N-HSQC spectra on uniformly ^15N-labeled RRM domain (˜0.1 mM) in the presence of different amounts of DNA/RNA or compounds at 25° C. Protein samples and stock solutions of DNA/RNA were all prepared in 20 mM potassium phosphate buffer and 70 mM KCl, pH 7.0, 10% D2O. All compounds were dissolved in isotope-labeled d6-DMSO (Sigma-Aldrich) at about 50 mM concentration, working as stock solutions. To avoid chemical shift changes of protein samples resulted from d6-DMSO addition, 10 μL d6-DMSO was added into 500 μL of 0.1 mM protein solution in the NMR buffer (20 mM potassium phosphate buffer and 70 mM KCl, pH 7.0, 10% D2O) and then the 2D HSQC was recorded as a reference.
In this scenario, specific RNA-binding proteins (RBPs), like hnRNP H, are recruited by the RNA foci, resulting in RNA processing impairment and further cytotoxicity to the central nervous system^30,36,37. Therefore, we tested the binding possibility of cA with the RRM domain of hnRNP H by NMR titration. […] Intriguingly, the DNA (G4C2)4 (SEQ ID NO: 5) G4 was also shown a potent binding affinity to the RRM domain of hnRNP H (FIG. 4C).

T1 sequence (P10636 623-653 limits assumed): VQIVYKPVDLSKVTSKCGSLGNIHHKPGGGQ

**Q.** Which results are given for N=C(N)c1ccc(-c2ccc(-c3ccc(-c4ccc(C(=N)N)cn4)o3)o2)nc1 [DB1246, reference compound]?
**A.** binding to RNA (G4C2)2 G4 by NMR titration [1]: strongly bound; permeability (PAMPA) [2]: much worse permeability than cA, cB, cC; binding to DNA (G4C2)2 G4 by NMR titration [3]: strongly bound; binding to DNA (G4C2)4 G4 by NMR titration [4]: strongly bound; binding to htel21_T18 G4 by NMR titration [5]: strongly bound

**Q.** Which results are given for COc1c2c(c(O)c3c(=O)c4cccc(O[C@@H]5O[C@H](C(=O)O)[C@@H](O)[C@H](O)[C@H]5O)c4oc13)-c1c(cc(CC(C)=O)c(C(=O)O)c1O)CC2 [cD, chrexanthomycin D]?
**A.** cytotoxicity (structure-activity summary) [6]: showed cytotoxicity; EC50 [6]: 53.6 µM; neuroprotective activity compared with cA [6]: worse than cA; IC50 (Tau-R3): 4.75 µM

**Q.** Which results are given for COc1c2c(c(OC)c3c(=O)c4cccc(O[C@@H]5O[C@H](C(=O)O)[C@@H](O)[C@H](O)[C@H]5O)c4oc13)-c1c(cc(CC(C)=O)c(C(=O)O)c1O)CC2 [cE, chrexanthomycin E]?
**A.** cytotoxicity (structure-activity summary) [6]: showed cytotoxicity; neuroprotective activity compared with cA [6]: worse than cA; IC50 (Tau-R3): 6.13 µM

**Q.** For C[C@@]1(O)Cc2cc3c(c(O)c2C(=O)O1)-c1c(c(O)c(O)c2c(=O)c4cccc(O[C@@H]5OC(C(=O)O)=C[C@H](O)[C@H]5O)c4oc12)CC3 [cF, chrexanthomycin F], which “neuroprotective activity compared with cA” value [6] is on record?
**A.** Its value is “worse than cA”.

**Q.** And the “binding affinity order according to NMR titration” value ([4]; DNA (G4C2)4 G-quadruplex and hnRNP H, FIGS. 3C-3E)?
**A.** Its value is “cC>cA>cB>cF”.

**Q.** And the “binding to DNA (G4C2)4 G4 by NMR titration” value [4]?
**A.** Its value is “proved to bind”.

**Q.** And the “binding to RRM domain of hnRNP H by NMR titration” value (RRM domain of hnRNP H)?
**A.** Its value is “much weaker bindings”.

**Q.** With CC12CC3CC(C)(C1)CC(N)(C3)C2 [memantine, reference compound] as the compound, how does the EC50 [6] read?
**A.** The EC50 was 23.9 µM.

**Q.** With COCCOC(=O)C1=C(C)NC(C)=C(C(=O)OC(C)C)C1c1cccc([N+](=O)[O-])c1 (stereo not drawn) [nimodipine, reference compound] as the compound, how does the EC50 [6] read?
**A.** Its EC50 is 1.14 µM.
